Assay results: patent US20240417747A1 (priority 2021, published 2024)
“Also recorded” adds a separate entry of the source. Structures can show the parent of a compound that is named as a salt. Where two headings read alike, the source gives them in different places.

What was measured:
[1] = test system: CLas-positive stems of Valencia sweet orange; conditions: branches soaked in DPI 25 μM, 48 h, vs water
[2] = test system: CLas-positive 5-year-old C. sinensis trees; format: in vivo, Citrus sinensis; conditions: 7 days post trunk injection of streptomycin
[3] = test system: C. sinensis protoplast cells; format: cell-based, Citrus sinensis
[4] = test system: HLB positive C. sinensis 'Valencia' trees; format: in vivo, Citrus sinensis; conditions: for H2O2 concentration in exudates of phloem-enriched bark tissues / cell death (ion leakage) in exudates of phloem-enriched bark tissues: weekly foliar spray, six weeks
[5] = test system: HLB positive C. sinensis 'Valencia' and 'Vernia'; format: in vivo, Citrus sinensis
[6] = test system: ROS related genes in C. sinensis protoplast cells; format: cell-based, Citrus sinensis; conditions: GA 5 mg/L, 1.8 mM H2O2, 6 h
[7] = test system: immortalized rat embryo fibroblasts; conditions: cited from earlier work
[8] = test system: Arabidopsis; conditions: cited from earlier work
[9] = GA 5 mg/L foliar spray weekly for six weeks
[10] = GA 25 mg/L foliar spray weekly for six weeks
[11] = 6-year-old 'Valencia' and 'Vernia', eight months after GA application
[12] = GA 1,247 ppm foliar spray, 8 months after application
[13] = uric acid 1.8 mM, rutin 0.6 mM, listed as Uric acid

With c1ccc2c(c1)[I+]c1ccccc1-2 [DPI, diphenyleneiodonium] the “ROS levels (H2O2 concentration) in phloem-enriched bark tissues of CLas-positive stems” value [1] was “reduced”.
For [H]/N=C(/N)N[C@H]1[C@H](O)[C@@H](O)[C@H](O[C@@H]2O[C@@H](C)[C@](O)(C=O)[C@H]2O[C@@H]2O[C@@H](CO)[C@H](O)[C@@H](O)[C@@H]2NC)[C@@H](N/C(N)=N\[H])[C@@H]1O [streptomycin, streptomycin sulfate], the “H2O2 content in the phloem tissues” value [2] was “significantly reduced”, the “ion leakage in the phloem tissues” value [2] was “significantly reduced” and the CLas titers ([2]; phloem tissues) was “significantly reduced”.
In the case of C=C1C[C@]23C[C@@]1(O)CC[C@H]2[C@@]12C=C[C@H](O)[C@@](C)(C(=O)O1)[C@H]2[C@@H]3C(=O)O [GA, Gibberellic acid], the “death of C. sinensis protoplast cells caused by 1.8 mM H2O2” value ([3]; GA 5 mg/L, 24 h) is reported as “suppresses”, the “H2O2 caused by CLas (phloem exudates)” value [4, 9] is reported as “reduced” and the “ion leakage caused by CLas (phloem exudates)” value [4, 9] is reported as “reduced”. The “H2O2 caused by CLas (phloem exudates)” value [4, 10] was “reduced”, the “ion leakage caused by CLas (phloem exudates)” value [4, 10] was “reduced” and the “growth as indicated by new flushes” value ([4]; six weeks after foliar spray, vs water control) was “promoted growth”. For the same compound, the “plant growth: canopy volume” value [5, 11] was “significantly promoted”, the “plant growth: tree height” value [5, 11] was “significantly promoted” and the “plant growth: trunk diameter” value [5, 11] was “significantly promoted”. The HLB disease symptoms [5, 12] was “significantly reduced; also recorded: suppresses”, the “percentage of symptomatic leaves (ratio symptomatic leaves vs total leaves)” value [5, 12] was “significantly reduced” and the “HLB disease incidence (infected trees)” value ([5]; in vivo) was 100%. For the same compound, the “expression of RbohD” value [6] was “inhibited” and the “expression of genes encoding H2O2 scavenging enzymes catalases, ascorbate peroxidases and glutathione peroxidases” value [6] was “induced”.
In the case of O=c1[nH]c(=O)c2[nH]c(=O)[nH]c2[nH]1 [uric acid], the H2O2 concentration ([3]; addition of uric acid 0.2 mM (text cites FIG. 5C)) is reported as “reduced”, the “cell death of protoplast cells caused by H2O2” value ([3]; addition of uric acid 0.2 mM, 24 h) is reported as “reduced” and the “HLB symptoms compared with before treatment” value ([4]; six weeks after first weekly foliar spray, uric acid 1.8 mM, rutin 0.6 mM, GA) is reported as “significantly reduced”. The “H2O2 concentration in exudates of phloem-enriched bark tissues” value ([4]; uric acid 1.8 mM, rutin 0.6 mM) was “reduced”, the “cell death (ion leakage) in exudates of phloem-enriched bark tissues” value ([4]; uric acid 1.8 mM, rutin 0.6 mM) was “reduced” and the “H2O2 concentration in exudates of phloem-enriched bark tissues” value [4, 13] was “reduce”. The “cell death (ion leakage) in exudates of phloem-enriched bark tissues” value [4, 13] was “reduce”.
In the case of OO [H2O2], the “cell death of C. sinensis protoplast cells” value ([3]; H2O2 0.6 mmol/L or lower, 24 h) is reported as “not”, the “cell death of C. sinensis protoplast cells” value ([3]; H2O2 1.8 mmol/L, 24 h) is reported as “induced cell death” and the “viability of protoplast cells (FDA staining)” value ([3]; different concentrations of H2O2, 24 h) is reported as “kills”. The concentration inducing necrosis [7] was 700 µmol/L and the “concentration inhibiting growth of plants” value [8] was 1 mM.
